Measurements published in article PMC12730333 (Biology, 2025).
Where two headings read alike, the source gives them in different places. Marks after values point to notes of the source that are not given here.

Columns and labels:
[1] = tested on: ex vivo amastigote forms of L. amazonensis LTB0016 strain; test: ROS production by flow cytometry, H2DCFDA, ex vivo amastigotes; type: cell-based, Leishmania amazonensis; settings: exposed to IC50 (AA 10 µM), 24 h; for VIROS, Ex Vivo Amastigotes High Population / VIROS, Ex Vivo Amastigotes Low Population: MT/MC
[2] = tested on: promastigote forms of Leishmania amazonensis PH8 strain; test: ROS production by flow cytometry, H2DCFDA, promastigotes; type: cell-based; settings: exposed to IC50 (AA 10 µM), 24 h
HepG2 cells [3] = tested on: HepG2 cells; set-up: method as in Araújo et al. 120; settings: ref Araújo et al. 120; read-out: cytotoxic concentration (compared with CC50 in HepG2); cited from earlier work
[4] = Cytotoxicity assay (Alamar Blue, 24 h) on murine peritoneal macrophages; type: cell-based, Swiss Webster mice; settings: male, Swiss Webster, mouse, murine peritoneal macrophages (MPMs, primary cells); for CC50 at 24 h: 3 × 10^5 cells/well
Description: (§1) Murine peritoneal macrophages—MPMs (primary cells)—were isolated from male Swiss Webster mice stimulated with 1 mL of 3% Brewer’s thioglycollate medium, administered intraperitoneally. After 96 h, the animals were euthanized, and the MPMs were collected by peritoneal lavage with approximately 10 mL of RPMI 1640 medium. The cell suspension was centrifuged at 382× g for 10 min, and the pellet was resuspended in medium supplemented with 5% FBS, 1% Pen/Str, and 2 mM L-glutamine. All cell cultures were maintained at 37 °C and 5% CO2 [73]. For the experiments, all cell types were cultured until confluency.
(§2) J774.G8, VERO (10^5 cells/well), HepG2, L929 (0.5 × 10^5 cells/well) cells, and MPMs (3 × 10^5 cells/well) were centrifuged, resuspended in medium, plated in 96-well microplates, and incubated for 24 h under cultivation conditions. Subsequently, they were exposed to different concentrations of the compounds, serially diluted in medium to a final volume of 100 µL/well, and incubated for 24 h at 37 °C and 5% CO2. Cell viability was then assessed using the AB, and data were acquired by spectrophotometry. […] Untreated cells were used as negative controls, and cells exposed to the reference compound (MT) were used as positive controls. The Selectivity Index (SI) was calculated using the ratio SI = CC50 (mammalian cells)/IC50 (promastigote or amastigote forms of L. amazonensis).

[5] = Cytotoxicity assay (Alamar Blue, 24 h) on J774.G8 macrophages; type: cell-based, murine; settings: mouse, J774.G8 macrophages, 10^5 cells/well, read-out: CC50 J744.G8
Description: (§3) HepG2 cells (human hepatocellular carcinoma), VERO cells (African green monkey kidney), and J774.G8 macrophages (murine reticulosarcoma) were maintained in DMEM medium, supplemented with 10% FBS, 1% Pen/Str at 37 °C and 5% CO2 [70, 71]. For the cultivation of L929 fibroblasts (murine fibrosarcoma), RPMI 1640 medium without phenol red, supplemented with 2 mM L-glutamine, 10% FBS, and 1% Pen/Str, was used and maintained under the same conditions of temperature and CO2 as above.
as §2

[6] = tested on: ex vivo amastigote forms of L. amazonensis LTB0016 strain; test: Leishmanicidal activity assay on ex vivo amastigotes (Alamar Blue, 24 h); settings: for IC50: 24 h, read-out: IC50 Ama.; for efficacy compared with MT: concentrations below 0.28 μM; for inhibitory action compared with MT: doses < 0.10 μM
Description: Ex vivo amastigote forms of L. amazonensis (MHOM/BR/77/LTB0016) were harvested and purified from lesions of male BALB/c mice. For this, a suspension containing 10^6 amastigotes was inoculated subcutaneously into the intraplantar region of the hind paw. After 30 days, the animals were euthanized, and their paws were excised and rinsed in 70% ethanol. The epidermis and necrotic tissues were mechanically dissociated. Subsequently, the paws were placed in Petri dishes containing RPMI 1640 medium supplemented with 5% FBS and 2% Pen/Str. […] The supernatant was transferred to another tube, homogenized with a syringe, and centrifuged at 764× g for another 15 min. The supernatant was discarded, and the pellet was resuspended in RPMI 1640 medium [69].
(§4) Promastigotes were kept at 26 °C, whereas amastigotes were kept at 32 °C. After 24 h, parasite viability was assessed using the AB colorimetric method, and the data were analyzed using a spectrophotometer as previously described [74]. […] Wells with medium and without parasites were used as blanks, and wells with medium and untreated parasites were used as negative controls. MT was employed as the reference drug.

[7] = Cytotoxicity assay (Alamar Blue, 24 h) on HepG2 cells; type: cell-based, human; settings: human, HepG2 cells, 0.5 × 10^5 cells/well
Description: as §3, §2

[8] = Cytotoxicity assay (Alamar Blue, 24 h) on VERO cells; type: cell-based, African green monkey; settings: African green monkey, VERO cells, 10^5 cells/well
Description: as §3, §2

VERO cells = test: as above; type: cell-based, African green monkey; settings: for CC50: 10^5 cells/well
Description: as §3, §2

[9] = Cytotoxicity assay (Alamar Blue, 24 h) on L929 fibroblasts; type: cell-based, murine; settings: mouse, L929 fibroblasts; for CC50 at 24 h: 0.5 × 10^5 cells/well
Description: as §3, §2

[10] = tested on: promastigote forms of Leishmania amazonensis PH8 strain; test: Leishmanicidal activity assay on promastigotes (Alamar Blue, 24 h); type: cell-based; settings: 10^6 parasites/mL
Description: Promastigote forms of Leishmania amazonensis (IFLA/BR/1967/PH8) were obtained from the Instituto Oswaldo Cruz Leishmania collection (CLIOC/Fiocruz). These cultures were maintained in Schneider’s Insect Medium, supplemented with 20% FBS and 1 μL/mL of Pen/Str at 26 °C. In vitro passages were conducted weekly, with promastigotes harvested during the late logarithmic phase for experiments on the 5th day of growth (Figure S1A).
MT was employed as the reference drug.

[11] = tested on: promastigote forms of Leishmania amazonensis PH8 strain; test: Mitochondrial membrane potential (ΔΨm) by flow cytometry, TMRE, promastigotes; settings: exposed to IC50, 24 h; for VIΔΨm, Promastigotes High Population / VIΔΨm, Promastigotes Low Population: (MT − MC)/MC; for VIΔΨm, Promastigotes Low Population: negative = depolarization
[12] = tested on: Leishmania amazonensis promastigote forms (PH8 strain); settings: exposed to IC50, 24–168 h
Description: as §4

[13] = tested on: ex vivo amastigote forms of L. amazonensis LTB0016 strain; test: Mitochondrial membrane potential (ΔΨm) by flow cytometry, TMRE, ex vivo amastigotes; settings: for TMRE MFI, ex vivo Amastigotes High Population / TMRE MFI, ex vivo Amastigotes Low Population / VIΔΨm, ex vivo Amastigotes High Population / VIΔΨm, ex vivo Amastigotes Low Population: exposed to IC50, 24 h; for VIΔΨm, ex vivo Amastigotes High Population / VIΔΨm, ex vivo Amastigotes Low Population: (MT − MC)/MC
HepG2 cells [14] = test: Cytotoxicity assay (Alamar Blue, 24 h) on HepG2 cells; type: cell-based, human; settings: 0.5 × 10^5 cells/well
Description: as §3, §2

[15] = tested on: murine peritoneal macrophages—MPMs; test: Cytotoxicity assay (Alamar Blue, 24 h) on murine peritoneal macrophages; type: cell-based, Swiss Webster mice; settings: 3 × 10^5 cells/well
Description: as §1, §2

J774.G8 cells = test: Cytotoxicity assay (Alamar Blue, 24 h) on J774.G8 macrophages; type: cell-based, murine; settings: 10^5 cells/well, read-out: CC50 J744.G8
Description: as §3, §2

L929 cells = test: Cytotoxicity assay (Alamar Blue, 24 h) on L929 fibroblasts; type: cell-based, murine; settings: for CC50: 0.5 × 10^5 cells/well
Description: as §3, §2

[16] = ex vivo amastigotes, 10^6 parasites/mL

Row | SMILES | H2DCFDA MFI, Ex Vivo Amastigotes High Population [1] | H2DCFDA MFI, Ex Vivo Amastigotes Low Population [1] | VIROS, Ex Vivo Amastigotes High Population [1] | VIROS, Ex Vivo Amastigotes Low Population [1] | H2DCFDA MFI, Promastigotes High Population [2] | H2DCFDA MFI, Promastigotes Low Population [2] | CC50 at 24 h [4] | CC50 at 24 h [5] | TMRE MFI, Promastigotes High Population [11] | TMRE MFI, Promastigotes Low Population [11] | VIΔΨm, Promastigotes High Population [11] | VIΔΨm, Promastigotes Low Population [11] | inhibitory action compared with MT ([6]; ex vivo amastigotes) | time from which proliferation was significantly (p < 0.05) reduced compared to MT [12] | TMRE MFI, ex vivo Amastigotes High Population [13] | TMRE MFI, ex vivo Amastigotes Low Population [13] | VIΔΨm, ex vivo Amastigotes High Population [13] | VIΔΨm, ex vivo Amastigotes Low Population [13] | CC50 (HepG2 cells [14]) | IC50 [10] | further results
1 | CCCCCC[C@H]1C(=O)O[C@H](C)[C@H](NC(=O)c2cccc(NC=O)c2O)C(=O)O[C@@H](C)[C@@H]1OC(=O)CC(C)C [AA, Antimycin A, reference compound] | 143,227.25 | 3011.23 | 0.60 ± 0.53 | 1.14 ± 0.38 | 890,705.80 | 19,775.40 | – | – | – | – | – | – | – | – | – | – | – | – | – | – | VIROS, Promastigotes Low Population ([2]; MT/MC): 0.52 ± 0.13; VIROS, Promastigotes High Population ([2]; MT/MC (fold of control)): 2.07 ± 0.23
2 | C[C@@H]1[C@H](O)[C@@H](C)/C=C/C=C/C=C/C=C/C=C/C=C/C=C/[C@H](O[C@@H]2O[C@H](C)[C@@H](O)[C@H](N)[C@@H]2O)C[C@@H]2O[C@](O)(C[C@@H](O)C[C@@H](O)[C@H](O)CC[C@@H](O)C[C@@H](O)CC(=O)O[C@H]1C)C[C@H](O)[C@H]2C(=O)O [Amphotericin B] | – | – | – | – | – | – | – | – | – | – | – | – | – | – | – | – | – | – | – | – | CC50 (HepG2 cells [3]): 35.2 µM
3 | CCCCCCCCCCCCCCCCOP(=O)([O-])OCC[N+](C)(C)C [Miltefosine, miltefosine, reference compound] | – | – | – | – | – | – | 103 ± 4.77 µM | 156 ± 8.48 µM | – | – | – | – | – | – | – | – | – | – | – | – | viability at 24 h ([4]; exposures up to 70 μM): > 50%; IC50 ([6]; Leishmania amazonensis): 0.97 ± 0.4 µM; CC50 at 24 h [7]: 181 ± 11.3 µM; CC50 at 24 h [8]: 168 ± 2.75 µM; viability of VERO cells (VERO cells; concentrations ≥ 300 μM): eliminated the viability; CC50 at 24 h [9]: 113 ± 18.2 µM; IC50 ([10]; Leishmania amazonensis): 23.2 ± 2.55 µM
4 | CCNc1cc2[s+]c3cc(NCC)c(C)cc3nc2cc1C [NMB, new methylene blue] | 131,669.43 | 2940.57 | 0.84 ± 0.51 | 1.62 ± 0.90 | 1,512,521.00 * | 31,489.80 | 31.3 ± 5.72 µM | 68.5 ± 2.12 µM | 65,590.87 | 4095.05 | 0.11 ± 0.08 | −0.14 ± 0.20 | more inhibitory action | ≥ 72 h | 277,557.80 * | 3770.37 | −0.43 ± 0.20 | −0.27 ± 0.06 | 71.6 ± 3.15 µM | 5.42 µM | IC50 ([6]; Leishmania amazonensis): 2.66 ± 0.95 µM; efficacy compared with MT ([6]; ex vivo amastigotes): surpassed the efficacy of MT; loss of potential (ΔΨm) in HP ex vivo amastigotes / mitochondrial depolarization ([13]; IC50, 24 h): up to 61%; CC50 at 24 h [7]: > 70 µM; CC50 at 24 h [8]: 44.7 ± 3.4 µM; CC50 at 24 h [9]: 280.2 ± 2.19 µM; viability at 24 h ([9]; lower concentrations (37–100 μM), read-out: viability of L929 cells): > 50%; IC50 ([10]; Leishmania amazonensis): < 5.5 µM
5 | CCNc1cc2[s+]c3cc(NCC)c(C)cc3nc2cc1C.F[P-](F)(F)(F)(F)F.F[P-](F)(F)(F)(F)F.F[P-](F)(F)(F)(F)F.F[P-](F)(F)(F)(F)F.N#[O+].[Ru+2].c1ccc(-c2ccccn2)nc1.c1ccc(-c2ccccn2)nc1 [NMB-B, new methylene blue B] | 131,896.27 | 2116.87 | 0.85 ± 0.49 | 1.11 ± 0.48 | 2,639,177.00 ** | 39,191.97 | – | – | 74,562.13 | 4070.50 | 0.27 ± 0.16 | −0.13 ± 0.09 | more inhibitory action | ≥ 48 h | 410,112.30 | 4174.80 | −0.59 ± 0.21 | −0.31 ± 0.03 | 34.2 ± 7.31 µM | 5.48 µM | CC50 [15]: 65.9 ± 1.69 µM; CC50 (J774.G8 cells): 130 ± 7.35 µM; IC50 [6, 16]: 3.16 ± 0.37 µM; decrease of ΔΨm considering both subpopulations ([13]; ex vivo amastigotes, LP plus HP, IC50, 24 h): 90%; CC50 (VERO cells): 248 ± 32.9 µM; CC50 (L929 cells): 270 ± 8.48 µM; viability of L929 cells (L929 cells; lower concentrations (37–100 μM)): > 50%
6 | CCNc1cc2[s+]c3cc(NCC)c(C)cc3nc2cc1C.F[P-](F)(F)(F)(F)F.F[P-](F)(F)(F)(F)F.F[P-](F)(F)(F)(F)F.F[P-](F)(F)(F)(F)F.N#[O+].[Ru+2].c1cnc2c(c1)ccc1cccnc12.c1cnc2c(c1)ccc1cccnc12 [NMB-P, new methylene blue P] | 140,291.57 | 3063.17 | 0.90 ± 0.45 | 1.27 ± 0.45 | 2,325,902.50 ** | 34,607.80 | – | – | 86,029.23 | 3359.03 * | 0.49 ± 0.36 | −0.28 ± 0.03 | more inhibitory action | ≥ 96 h | 642,051.43 | 7215.47 | 0.39 ± 0.13 | 0.21 ± 0.04 | 35.1 ± 2.08 µM | 2.84 µM | CC50 [15]: 71.6 ± 1.85 µM; CC50 (J774.G8 cells): 69.8 ± 10.4 µM; efficacy compared with MT ([6]; ex vivo amastigotes): surpassed the efficacy of MT; IC50 [6, 16]: 0.46 ± 0.34 µM; CC50 (VERO cells): 240 ± 27.6 µM; CC50 (L929 cells): 150 ± 12 µM
